Active and inactive are the calls of the source. The calls are words filed in the database; no cut-off is given here.
Assays:
J774.A1 [1] = assay: Antiproliferative activity against mouse J774A.1 cells assessed as reduction in cell viability at 100 uM after 72 hrs by WST8 assay; format: functional, cell-based
RAW264.7 [2] = assay: Antiproliferative activity against mouse RAW264.7 cells assessed as reduction in cell viability at 100 uM after 72 hrs by WST8 assay; format: functional, cell-based
MG-63 [3] = assay: Antiproliferative activity against human MG63 cells assessed as reduction in cell viability at 100 uM after 72 hrs by WST8 assay; format: functional, cell-based
PC-3 [4] = assay: Antiproliferative activity against human PC3 cells assessed as reduction in cell viability at 100 uM after 72 hrs by WST8 assay; format: functional, cell-based
RAW264.7 [5] = assay: Antiproliferative activity against RANKL-differentiated mouse RAW264.7 cells assessed as reduction in cell viability at 100 uM after 72 hrs by CCK8 assay; format: functional, cell-based
RAW264.7 [6] = assay: Inhibition of RANKL-induced osteoclastogenesis in mouse RAW264.7 cells after 72 hrs by TRAP staining based microscopic analysis; format: functional, cell-based
Bone marrow cell [7] = assay: Induction of mineralization in C57BL mouse bone marrow cells at 50 nM supplemented with fresh medium containing compound every 3 days for 10 to 15 days by alizarin red dye based assay; format: functional
Bone marrow cell [8] = assay: Induction of mineralization in C57BL mouse bone marrow cells co-cultured with human PC3 cells at 50 to 100 nM supplemented with fresh medium containing compound every 3 days for 10 to 15 days by alizarin red dye based assay; format: functional
Bone marrow cell [9] = assay: Cytotoxicity against C57BL mouse bone marrow cells assessed as effect on cell proliferation at 0.03 to 500 uM after 72 hrs by crystal violet staining based assay
MC3T3-E1 [10] = assay: Induction of mineralization in mouse MC3T3-E1 cells at >500 nM after 10 to 15 days by alizarin red dye based assay; format: functional, cell-based
Bone marrow cell [11] = assay: Induction of mineralization in C57BL mouse bone marrow cells at >50 nM supplemented with fresh medium containing compound every 3 days for 10 to 15 days by alizarin red dye based assay; format: functional
Bone marrow cell [12] = assay: Induction of mineralization in C57BL mouse bone marrow cells co-cultured with human PC3 cells at >100 nM supplemented with fresh medium containing compound every 3 days for 10 to 15 days by alizarin red dye based assay; format: functional
MG-63 [13] = assay: Antiproliferative activity against human MG63 cells assessed as reduction in cell viability at 2.14 uM after 72 hrs by WST8 assay; format: functional, cell-based
PC-3 [14] = assay: Antiproliferative activity against human PC3 cells assessed as reduction in cell viability at 2.14 uM after 72 hrs by WST8 assay; format: functional, cell-based
J774.A1 [15] = assay: Antiproliferative activity against mouse J774A.1 cells assessed as change in cell proliferation at 100 uM after 72 hrs by crystal violet staining based assay relative to control; format: functional
RAW264.7 [16] = assay: Antiproliferative activity against mouse RAW264.7 cells assessed as change in cell proliferation at 100 uM after 72 hrs by crystal violet staining based assay relative to control; format: functional
MG-63 [17] = assay: Antiproliferative activity against human MG63 cells assessed as change in cell proliferation at 100 uM after 72 hrs by crystal violet staining based assay relative to control; format: functional
PC-3 [18] = assay: Antiproliferative activity against human PC3 cells assessed as change in cell proliferation at 100 uM after 72 hrs by crystal violet staining based assay relative to control; format: functional
J774.A1 [19] = assay: Antiproliferative activity against mouse J774A.1 cells assessed as reduction in cell proliferation at 500 uM after 72 hrs by crystal violet staining based assay; format: functional
RAW264.7 [20] = assay: Antiproliferative activity against mouse RAW264.7 cells assessed as reduction in cell proliferation at 500 uM after 72 hrs by crystal violet staining based assay; format: functional
MG-63 [21] = assay: Antiproliferative activity against human MG63 cells assessed as reduction in cell proliferation at 500 uM after 72 hrs by crystal violet staining based assay; format: functional
PC-3 [22] = assay: Antiproliferative activity against human PC3 cells assessed as reduction in cell proliferation at 500 uM after 72 hrs by crystal violet staining based assay; format: functional
[23] = biological target: T1, Farnesyl pyrophosphate synthase (Homo sapiens) (UniProt P14324); assay: Inhibition of recombinant human C-terminal His6-tagged FPPS expressed in Escherichia coli BL21 at 100 uM using DMAPP and IPP as substrates pretreated for 15 mins followed by substrates addition and measured after 1 hr by colorimetric method relative to control
T1 sequence (whole entry): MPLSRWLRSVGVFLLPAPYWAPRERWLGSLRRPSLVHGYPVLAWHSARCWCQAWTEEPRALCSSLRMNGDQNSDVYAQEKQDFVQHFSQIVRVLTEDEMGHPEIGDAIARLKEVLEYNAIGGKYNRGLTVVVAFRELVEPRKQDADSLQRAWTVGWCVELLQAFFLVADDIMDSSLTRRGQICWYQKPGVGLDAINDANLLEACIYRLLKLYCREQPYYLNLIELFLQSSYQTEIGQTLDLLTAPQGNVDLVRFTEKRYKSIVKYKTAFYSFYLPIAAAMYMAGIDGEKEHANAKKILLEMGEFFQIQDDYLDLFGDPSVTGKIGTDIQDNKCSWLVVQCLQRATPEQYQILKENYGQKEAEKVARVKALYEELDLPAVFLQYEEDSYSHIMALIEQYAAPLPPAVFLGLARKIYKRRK

[24] = biological target: T1, Farnesyl pyrophosphate synthase (Homo sapiens); assay: Inhibition of recombinant human C-terminal His6-tagged FPPS expressed in Escherichia coli BL21 at 1 to 10 uM using DMAPP and IPP as substrates pretreated for 15 mins followed by substrates addition and measured after 1 hr by colorimetric method relative to control
[25] = biological target: T2, Geranylgeranyl pyrophosphate synthase (Homo sapiens) (UniProt O95749); assay: Inhibition of recombinant human C-terminal His6-tagged GGPPS expressed in Escherichia coli BL21 at 1 to 10 uM using IPP and FPP as substrates pretreated for 15 mins followed by substrates addition and measured after 1 hr by colorimetric method relative to control
T2 sequence (whole entry): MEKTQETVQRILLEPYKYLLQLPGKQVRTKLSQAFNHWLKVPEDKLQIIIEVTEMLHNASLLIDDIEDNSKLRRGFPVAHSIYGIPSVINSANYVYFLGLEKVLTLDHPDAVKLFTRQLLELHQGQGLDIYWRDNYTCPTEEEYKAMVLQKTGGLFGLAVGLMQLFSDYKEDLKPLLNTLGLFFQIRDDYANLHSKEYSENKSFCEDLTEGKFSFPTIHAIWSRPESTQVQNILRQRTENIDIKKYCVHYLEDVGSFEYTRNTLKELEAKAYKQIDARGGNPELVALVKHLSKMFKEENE

Hydroxyapatite = assay: Binding affinity to hydroxyapatite at 100 uM using sodium salt form of compound after 5 mins by ESI/MS analysis
[26] = biological target: T3, Farnesyl pyrophosphate synthase (Homo sapiens, UniProt P14324); assay: Inhibition of recombinant human C-terminal His6-tagged FPPS expressed in Escherichia coli BL21 using DMAPP and IPP as substrates pretreated for 15 mins followed by substrates addition and measured after 1 hr by colorimetric method
T3 sequence (P14324 whole entry): T1 sequence (whole entry)

MC3T3-E1 [27] = assay: Induction of mineralization in mouse MC3T3-E1 cells at 30 to 50 nM after 10 to 15 days by alizarin red dye based assay; format: functional, cell-based
Bone marrow cell [28] = assay: Induction of cell proliferation in C57BL mouse bone marrow cells at 30 nM after 72 hrs by crystal violet staining based assay; conditions: 0.03 µM
Bone marrow cell [29] = assay: Induction of cell proliferation in C57BL mouse bone marrow cells at 100 nM after 72 hrs by crystal violet staining based assay; conditions: 0.1 µM
Bone marrow cell [30] = assay: Cytotoxicity against C57BL mouse bone marrow cells assessed as decrease in cell proliferation at 100 to 500 uM after 72 hrs by crystal violet staining based assay; design: scale not given: the % may be the effect or the level left

SMILES: NCCCC(O)(P(=O)(O)O)P(=O)(O)O [ALENDRONIC ACID]
- Activity (J774.A1 [1]): Active
- Activity (RAW264.7 [2]): Active
- Activity (MG-63 [3]): Active
- Activity (PC-3 [4]): Active
- Activity (RAW264.7 [5]): Active
- inhibition (RAW264.7 [6]): Active
- Activity (Bone marrow cell [7]): Active
- Activity (Bone marrow cell [8]): inactive
- Activity (Bone marrow cell [9]): Non-Toxic
- Activity (MC3T3-E1 [10]): inactive
- Activity (Bone marrow cell [11]): inactive
- Activity (Bone marrow cell [12]): inactive

SMILES: CN[C@@H]1C[C@H]2O[C@@](C)([C@@H]1OC)n1c3ccccc3c3c4c(c5c6ccccc6n2c5c31)C(=O)NC4
- Activity (MG-63 [13]): Active
- Activity (PC-3 [14]): Active

SMILES: O=P(O)(O)C(O)(CNc1ncnc2ccccc12)P(=O)(O)O
- Activity (J774.A1 [15]): -27.398%
- Activity (RAW264.7 [16]): -34.592%
- Activity (MG-63 [17]): -15.397%
- Activity (PC-3 [18]): -9.488%
- Activity (J774.A1 [19]): inactive
- Activity (RAW264.7 [20]): inactive
- Activity (MG-63 [21]): inactive
- Activity (PC-3 [22]): inactive
- inhibition [23]: 52%
- inhibition [24]: 68 to 79%
- inhibition [25]: 68 to 79%
- Activity (Hydroxyapatite): 81%

SMILES: O=P(O)(O)C(O)(CNc1ncccn1)P(=O)(O)O
- Activity (J774.A1 [15]): -31.512%
- Activity (RAW264.7 [16]): -47.365%
- Activity (MG-63 [17]): -16.295%
- Activity (PC-3 [18]): -29.682%
- Activity (J774.A1 [19]): inactive
- Activity (RAW264.7 [20]): inactive
- Activity (MG-63 [21]): inactive
- Activity (PC-3 [22]): inactive
- Activity (J774.A1 [1]): Active
- Activity (RAW264.7 [2]): Active
- Activity (MG-63 [3]): Active
- Activity (PC-3 [4]): Active
- Activity (RAW264.7 [5]): Active
- inhibition (RAW264.7 [6]): Active
- inhibition [23]: 96%
- inhibition [24]: 68 to 79%
- inhibition [25]: 68 to 79%
- IC50 [26]: 0.31 µM
- Activity (Hydroxyapatite): 90%
- Activity (MC3T3-E1 [27]): Active
- Activity (Bone marrow cell [7]): Active
- Activity (Bone marrow cell [8]): Active
- Activity (Bone marrow cell [28]): Toxic
- Activity (MC3T3-E1 [10]): inactive
- Activity (Bone marrow cell [11]): inactive
- Activity (Bone marrow cell [12]): inactive

SMILES: O=P(O)(O)C(O)(CCNc1ncc2ccccc2n1)P(=O)(O)O
- Activity (J774.A1 [15]): -59.879%
- Activity (RAW264.7 [16]): -52.95%
- Activity (MG-63 [17]): 1.174%
- Activity (PC-3 [18]): -13.524%
- Activity (J774.A1 [19]): inactive
- Activity (RAW264.7 [20]): inactive
- Activity (MG-63 [21]): inactive
- Activity (PC-3 [22]): inactive
- inhibition [23]: 79%
- inhibition [24]: 68 to 79%
- inhibition [25]: 68 to 79%
- IC50 [26]: 41 µM
- Activity (Hydroxyapatite): 84%

SMILES: O.O=P(O)(O)C(O)(Cn1ccnc1)P(=O)(O)O [ZOLEDRONIC ACID]
- Activity (J774.A1 [15]): -60.657%
- Activity (RAW264.7 [16]): -54.523%
- Activity (MG-63 [17]): -27.901%
- Activity (PC-3 [18]): -28.408%
- Activity (J774.A1 [1]): Active
- Activity (RAW264.7 [2]): Active
- Activity (MG-63 [3]): Active
- Activity (PC-3 [4]): Active
- Activity (RAW264.7 [5]): Active
- inhibition (RAW264.7 [6]): Active
- Activity (Hydroxyapatite): > 95%
- Activity (MC3T3-E1 [27]): Active
- Activity (Bone marrow cell [7]): Active
- Activity (Bone marrow cell [8]): Active
- Activity (Bone marrow cell [29]): Toxic
- Activity (Bone marrow cell [30]): 20%
- Activity (MC3T3-E1 [10]): inactive
- Activity (Bone marrow cell [11]): inactive
- Activity (Bone marrow cell [12]): inactive

SMILES: O=P(O)(O)C(O)(Cc1cccnc1)P(=O)(O)O [RISEDRONIC ACID]
- Activity (J774.A1 [1]): Active
- Activity (RAW264.7 [2]): Active
- Activity (MG-63 [3]): Active
- Activity (PC-3 [4]): Active
- Activity (RAW264.7 [5]): Active
- inhibition (RAW264.7 [6]): Active
- Activity (Hydroxyapatite): 87%
- Activity (Bone marrow cell [7]): Active
- Activity (Bone marrow cell [8]): inactive
- Activity (Bone marrow cell [9]): Non-Toxic
- Activity (MC3T3-E1 [10]): inactive
- Activity (Bone marrow cell [11]): inactive
- Activity (Bone marrow cell [12]): inactive

SMILES: CC(Nc1ncc2ccccc2n1)C(O)(P(=O)(O)O)P(=O)(O)O (racemic)
- Activity (J774.A1 [15]): -18.855%
- Activity (RAW264.7 [16]): -16.783%
- Activity (MG-63 [17]): -8.959%
- Activity (PC-3 [18]): -17.252%
- Activity (J774.A1 [19]): inactive
- Activity (RAW264.7 [20]): inactive
- Activity (MG-63 [21]): inactive
- Activity (PC-3 [22]): inactive
- inhibition [23]: 40%
- inhibition [24]: 68 to 79%
- inhibition [25]: 68 to 79%

From ChEMBL document CHEMBL4265921, “Novel bisphosphonates with antiresorptive effect in bone mineralization and osteoclastogenesis” (Eur J Med Chem, 2018)
